Results taken from patent US12435031B2, “Compound with broad-spectrum antibacterial activity and its antibacterial composition” (CHINA AGRICULTURAL UNIVERSITY, priority 2023, dated 2025).
Converted amounts (≈) assume the structure as drawn. Like-named read-outs stand apart in the source and are kept apart here.

Test system: Clostridium perfringens
Test: microbe, parasite or virus in culture
Assay type: cell-based
Conditions: Clostridium perfringens

For `O=C(Nc1cc(Cl)cc(Br)c1)c1cc(Cl)ccc1O` [BAB142], the MIC50 was 16 µg/mL (≈ 44.3 µM).
`Cc1cc(C(F)(F)F)ccc1NC(=O)c1cc(Cl)ccc1O` [BAB151] was tested, and the MIC50 was 8 µg/mL (≈ 24.3 µM).
`O=C(Nc1ccc(Cl)c(C(F)(F)F)c1Cl)c1cc(Cl)ccc1O` [BAB160] showed an MIC50 of 8 µg/mL (≈ 20.8 µM).
In the case of `O=C(Nc1cc(F)c(Cl)c(Cl)c1)c1cc(Cl)ccc1O` [BAB166], the MIC50 is reported as 32 µg/mL (≈ 95.6 µM).
Work on `CO/N=C(\C(=O)N[C@@H]1C(=O)N2C(C(=O)O)=C(CSC(=O)c3ccco3)CS[C@H]12)c1csc(N)n1` [CEF, Ceftiofur] yielded an MIC (read-out: MIC value against Clostridium perfringens, strain A3-1 (A-type)) of no more than 0.25 µg/mL, an MIC (read-out: MIC value against Clostridium perfringens, strain A3-2 (A-type)) of no more than 0.25 µg/mL and an MIC (read-out: MIC value against Clostridium perfringens, strain A57-1 (A-type)) of no more than 0.25 µg/mL. It also gave an MIC (read-out: MIC value against Clostridium perfringens, strain B4 (B-type)) of no more than 0.25 µg/mL, an MIC (read-out: MIC value against Clostridium perfringens, strain B5 (B-type)) of no more than 0.25 µg/mL and an MIC (read-out: MIC value against Clostridium perfringens, strain C3 (C-type)) of 1 µg/mL (≈ 1.91 µM). For the same compound, the MIC (read-out: MIC value against Clostridium perfringens, strain C8 (C-type)) was no more than 0.25 µg/mL, the MIC (read-out: MIC value against Clostridium perfringens, strain C59-1 (C-type)) was no more than 0.25 µg/mL and the MIC (read-out: MIC value against Clostridium perfringens, strain D14B (D-type)) was no more than 0.25 µg/mL. The MIC (read-out: MIC value against Clostridium perfringens, strain F5-2 (F-type)) was no more than 0.25 µg/mL, the MIC (read-out: MIC value against Clostridium perfringens, strain F6-1 (F-type)) was no more than 0.25 µg/mL and the MIC (read-out: MIC value against Clostridium perfringens, strain F6-2 (F-type)) was no more than 0.25 µg/mL. For the same compound, the MIC (read-out: MIC value against Clostridium perfringens, strain F6-2-1 (F-type)) was no more than 0.25 µg/mL, the MIC (read-out: MIC value against Clostridium perfringens, strain F6-2-2 (F-type)) was no more than 0.25 µg/mL and the MIC (read-out: MIC value against Clostridium perfringens, strain F7-1 (F-type)) was no more than 0.25 µg/mL. It also gave an MIC (read-out: MIC value against Clostridium perfringens, strain F8-1 (F-type)) of no more than 0.25 µg/mL, an MIC (read-out: MIC value against Clostridium perfringens, strain H12-1 (H-type)) of no more than 0.25 µg/mL and an MIC (read-out: MIC value against Clostridium perfringens, strain H12-2 (H-type)) of no more than 0.25 µg/mL. It also gave an MIC (read-out: MIC value against Clostridium perfringens, strain H13-1 (H-type)) of no more than 0.25 µg/mL, an MIC (read-out: MIC value against Clostridium perfringens, strain H14-1 (H-type)) of no more than 0.25 µg/mL and an MIC (read-out: MIC value against Clostridium perfringens, strain H14-2 (H-type)) of no more than 0.25 µg/mL. The MIC (read-out: MIC value against Clostridium perfringens, strain H14-4 (H-type)) was no more than 0.25 µg/mL, the MIC (read-out: MIC value against Clostridium perfringens, strain H15-1 (H-type)) was no more than 0.25 µg/mL and the MIC (read-out: MIC value against Clostridium perfringens, strain H15-2 (H-type)) was no more than 0.25 µg/mL. It also gave an MIC (read-out: MIC value against Clostridium perfringens, strain H15-3 (H-type)) of no more than 0.25 µg/mL and an MIC (read-out: MIC value against Clostridium perfringens, strain H16 (H-type)) of no more than 0.25 µg/mL.
